Measured values from paper PMC8233136, “Monomeric bile acids modulate the ATPase activity of detergent-solubilized ABCB4/MDR3” (Journal of Lipid Research, 2021).
Values joined by “and” are separate entries in the source; they are usually repeats but may differ in a detail not shown here. Identical values can stand only once.

Experiments:
[1] = Critical micelle concentration by Hoechst 33342 fluorescence in ATPase reaction buffer; format: physicochemical; conditions: 50 mM Tris-HCl pH 7.5, 100 mM NaCl, 37°C; no FC-16, MgCl2 or ATP
Experimental: CMC values were determined as described ([61]). […] 96-well plates suitable for fluorescence spectroscopy (Greiner Bio-One, FIA plate, black, flat bottom, medium binding) were used. […] CMCs of the bile acids were determined in ATPase reaction buffer (50 mM Tris-HCl, pH 7.5 (at 37°C), 100 mM NaCl) containing no FC-16, MgCl2, or ATP at 37°C using a Tecan M200 plate reader (Atlantic lab equipment). Bile acids were dissolved either in ddH2O or in 100% DMSO (as stated in “Lipid, cholesterol and bile acid preparation”) at a concentration of 100 mM. […] In case of hydrophobic bile acids, which were dissolved in DMSO, DMSO concentration was adapted to 1% in all wells. […] After background correction, fluorescence data were analyzed using Prism (version 8, GraphPad) with Equation 4:(4) F=Fmax∗(c[BA]−cmc)/(K0.5−cmc)+(c[BA]−cmc)
The measured fluorescence at each bile acid concentration (c[BA]) is represented by F, while Fmax is the maximal fluorescence, K0.5 is the midpoint of the function, and cmc is the critical micelle concentration of the bile acid.

[2] = molecular target: T1, human ABCB4 (Homo sapiens, UniProt P21439); assay: ATP hydrolysis (malachite green) of detergent-solubilized, purified ABCB4: modulation of basal ATPase activity; format: biochemical; conditions: for EC50: stimulation of basal ATPase activity, allosteric sigmoidal fit; for EC50 / Concentration at which maximal stimulation (plateau) of ATPase activity is reached / Emax / Max. Stimulation (%): 0-1,000 μM; for Slope: Hill coefficient of allosteric sigmoidal fit of ATPase stimulation; for Concentration at which maximal stimulation (plateau) of ATPase activity is reached: basal ATPase activity; for Emax / Max. Stimulation (%): basal ABCB4 ATPase activity set to 0%
T1 construct: made in house; host or cells: Pichia pastoris (chromosomally integrated)
Experimental: (§1) The sodium salts of conjugated and unconjugated bile acids were dissolved in double-distilled water (ddH2O) or 100% DMSO at a concentration of 100 mM. While glyco-/tauro-/cholic acid (G/T/CA), glyco-/tauro-/chenodeoxycholic acid (G/T/CDCA) were dissolved in ddH2O water, glyco-/tauro-/deoxycholic acid (G/T/DCA), glyco/-tauro-/ursodeoxycholic acid (G/T/UDCA) as wells as Nor-UDCA and taurolithocholic acid (TLCA) were dissolved in DMSO. […] Modulation of the ATP hydrolysis by bile acid was determined in a concentration-dependent manner from 0 to 1,000 μM bile acids.
(§2) Analysis of the ATP activity of ABCB4 was performed by determining the amount of released, free inorganic orthophosphate by the malachite green assay ([53], [54], [60]) with minor modifications. The assay was performed in a total volume of 100 μl consisting of reaction buffer (50 mM Tris HCl, pH 7.4 at 37°C, 100 mM NaCl) supplemented with the 2.5 × cmc of FC-16 and 10 mM MgCl2. For determining the effect of DOPC, different bile acids or combinations thereof, 1–5 μL of the corresponding stock solutions (see lipid and bile acid preparation) were added. Five micrograms of ABCB4 or the BODIPY®-labeled sample was used in every reaction sample. Reaction was started by addition of ATP (5 mM f.c.) and performed for 40 min at 37°C. After 0 and 40 min, the reaction was stopped by transferring 25 μl of the reaction mixture into a 96-well plate containing 175 μl of 20 mM ice-cold sulfuric acid. Additionally, a phosphate standard with concentrations raging from 0 to 500 μM was used. Subsequently, inorganic phosphate was stained by adding 50 μl of dye (0.096% (w/v) malachite green, 1.48% (w/v) ammonium molybdate, 0.173% (w/v) Tween-20, and […] sulfuric acid). After incubation for 15 min, the absorption at 595 nm was measured (iMark™ Microplate Reader, BioRad), and the concentrations of phosphate release were calculated based on the slope of the line calculated based on the phosphate standards.
(§3) Basal ATPase activity of ABCB4 was set to 0% and the effect of supplements was calculated as % stimulation or % inhibition of the basal activity, respectively. For determination of kinetic parameters, bile acid concentration was varied and analyzed according to an allosteric sigmoidal fit (Equation 1):(1) v=vmax∗[S]^h/EC50h+[S]^h
Here, v describes the stimulation (%), vmax is the maximal stimulation (%), EC50 represents the half maximal effective concentration, S is the substrate concentration, and h is the Hill coefficient
In case of inhibition, the reduction (%) was plotted against the bile acid concentration and data were analyzed using Equation 2:(2) y=ymin+(ymax−ymin)/1+10^((logIC50−x)∗slope)
Here, ymax is the smallest, and ymin is the highest amount of inhibition, respectively, and x represents the concentration of the inhibitor. The IC50 value is defined as the concentration necessary to obtain 50% inhibition.
In case of both substrate stimulations, followed by substrate inhibition after maximal stimulation was reached, the modulation (%) was plotted against the substrate concertation and data was analyzed using by two fits: First part (stimulation) was as usually fitted using Equation 1. The second part (substrate inhibition) was analyzed by Equation 3 starting at the last point of the plateau:(3) y=ymin+[…]/(1+x/IC50)
Here, ymax is the highest value of the plateau after stimulation is reached, while ymin is the smallest value of y after maximal stimulation was reached.

[3] = molecular target: T1, human ABCB4; assay: ATP hydrolysis (malachite green) of purified ABCB4 in the presence of 300 μM DOPC (with or without cholesterol); format: biochemical; conditions: for activity at 1000 µM / Relative ATPase activity in the presence of 300 μM DOPC: 1,000 μM bile acid/detergent/BAM + 300 μM DOPC; for activity at 1000 µM: read-out: Relative ATPase activity in the presence of 300 μM DOPC; for Decrease of DOPC-stimulated ATPase activity: 1,000 μM + 300 μM DOPC, relative to DOPC alone
Experimental: A sample of purified ABCB4 was incubated with 10-fold molar excess of BODIPY® FL maleimide (BODIPY® FL N-(2-aminoethyl)maleimide, Molecular Probes) at 22°C for 20 min. The reaction was quenched after 20 min by addition of a 20-fold molar excess of dithiothreitol (DTT) at 22°C for 10 min. Qualitative labeling efficiency was analyzed by visualizing a sample after SDS-PAGE by UV excitation.
DOPC was dissolved in chloroform, the solvent was evaporated, and the dried lipid sample was redissolved in ATP hydrolysis reaction buffer (50 mM Tris HCl, pH 7.4 at 37°C, 100 mM NaCl) at a concentration of 25.4 mM following the protocol of Geertsma et al. ([59]). Prior to the addition of the DOPC sample to the ATP hydrolysis assay, it was diluted to 5 mM, sonicated until a clear solution was obtained, and subsequently used at a final concentration of 300 μM. Since chloroform is not suitable for the later ATPase assay and cholesterol at higher concentration is insoluble in water and nearly all solvents, a molar mixture of cholesterol and DOPC was used. This mixture was obtained by adding the required molar ratio of cholesterol to always the same amount of dried DOPC. Afterward, the mixture was treated identical to DOPC only as described above resulting in a final concentration (f.c.) of 300 μM DOPC with 0–1,000 μM cholesterol in the ATPase assay.
as §1, §2, §3

[4] = vmax of allosteric sigmoidal fit (Equation 1), read-out: Max. Stimulation (%)
[5] = basal = 0%, negative = inhibition, duplicates
[6] = vmax of allosteric sigmoidal fit (Equation 1)

T1 sequence (P21439 1-1279 isoform P21439-2): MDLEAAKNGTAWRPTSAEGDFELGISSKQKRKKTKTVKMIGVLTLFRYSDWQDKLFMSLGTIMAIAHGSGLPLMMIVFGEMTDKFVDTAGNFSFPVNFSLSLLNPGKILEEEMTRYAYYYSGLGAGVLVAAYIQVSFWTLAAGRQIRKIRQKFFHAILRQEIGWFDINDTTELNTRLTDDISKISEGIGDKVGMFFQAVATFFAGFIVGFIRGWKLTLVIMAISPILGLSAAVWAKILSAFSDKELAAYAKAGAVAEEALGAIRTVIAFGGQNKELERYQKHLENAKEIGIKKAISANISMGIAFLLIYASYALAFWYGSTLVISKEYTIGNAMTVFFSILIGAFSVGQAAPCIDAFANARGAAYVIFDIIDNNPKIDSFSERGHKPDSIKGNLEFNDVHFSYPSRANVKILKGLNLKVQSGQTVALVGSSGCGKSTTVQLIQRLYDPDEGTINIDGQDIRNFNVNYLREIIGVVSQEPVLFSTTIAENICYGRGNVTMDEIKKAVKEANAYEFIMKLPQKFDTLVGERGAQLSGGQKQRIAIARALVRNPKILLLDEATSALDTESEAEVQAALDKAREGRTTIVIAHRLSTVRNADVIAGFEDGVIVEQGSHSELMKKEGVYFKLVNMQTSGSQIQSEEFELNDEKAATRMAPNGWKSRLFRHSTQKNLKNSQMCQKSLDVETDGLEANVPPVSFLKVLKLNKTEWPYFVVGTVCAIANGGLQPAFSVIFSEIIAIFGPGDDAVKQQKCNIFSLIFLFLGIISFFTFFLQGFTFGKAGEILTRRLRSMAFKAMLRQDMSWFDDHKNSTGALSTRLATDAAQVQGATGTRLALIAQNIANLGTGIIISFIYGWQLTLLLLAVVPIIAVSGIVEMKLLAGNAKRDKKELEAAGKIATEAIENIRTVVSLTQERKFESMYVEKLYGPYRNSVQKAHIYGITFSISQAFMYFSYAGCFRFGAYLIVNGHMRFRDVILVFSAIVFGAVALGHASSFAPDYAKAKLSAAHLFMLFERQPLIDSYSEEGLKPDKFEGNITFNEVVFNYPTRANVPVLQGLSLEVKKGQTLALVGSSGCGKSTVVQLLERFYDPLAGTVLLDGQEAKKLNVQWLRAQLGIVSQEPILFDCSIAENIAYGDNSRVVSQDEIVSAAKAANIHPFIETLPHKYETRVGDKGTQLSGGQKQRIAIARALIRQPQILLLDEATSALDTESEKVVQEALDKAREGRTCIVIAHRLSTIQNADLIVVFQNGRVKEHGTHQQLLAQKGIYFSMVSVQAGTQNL

Row | Structure (SMILES) | Critical micelle concentration (cmc) [1] | Slope [2] | Concentration at which maximal stimulation (plateau) of ATPase activity is reached [2] | activity at 1000 µM ([3]; DOPC alone set to 100%) [%] | EC50 ([2]; read-out: EC50) [µM] | Emax [2, 4] [%] | also measured
1 | C[C@H](CCC(=O)NCCS(=O)(=O)O)[C@H]1CC[C@H]2[C@@H]3[C@H](O)C[C@@H]4C[C@H](O)CC[C@]4(C)[C@H]3C[C@H](O)[C@]12C [TCA, taurocholic acid] | 3.5 mM and 3.5 ± 0.1 mM | 2.6 ± 0.5 | approximately 400 μM | – | – | – | EC50 ([2]; EC50 (μM)): 114 µM; Emax ([2]; read-out: Max. Stimulation (%), vmax of allosteric sigmoidal fit (Equation 1)): 539 ± 24%
2 | C[C@H](CCC(=O)NCC(=O)O)[C@H]1CC[C@H]2[C@@H]3CC[C@@H]4C[C@H](O)CC[C@]4(C)[C@H]3C[C@H](O)[C@]12C [GDCA] | 2.0 mM and 2.0 ± 0.1 mM | 5.9 ± 1.2 | – | 156 ± 8.9 | 47.9 ± 1.5 | 259 ± 5 | –
3 | C[C@H](CCC(=O)NCCS(=O)(=O)O)[C@H]1CC[C@H]2[C@@H]3[C@H](O)C[C@@H]4C[C@H](O)CC[C@]4(C)[C@H]3CC[C@]12C [TCDCA, taurochenodeoxycholic acid] | 1.7 mM and 1.7 ± 0.1 mM | 2.6 ± 0.4 | approximately 500 μM | 112 ± 8.2 | 169 ± 11 | 423 ± 15 | –
4 | C[C@H](CCC(=O)NCCC[N+](C)(C)CC(O)CS(=O)(=O)[O-])[C@H]1CC[C@H]2[C@@H]3[C@H](O)C[C@@H]4C[C@H](O)CC[C@]4(C)[C@H]3C[C@H](O)[C@]12C (stereo partly drawn) [CHAPSO, 3-[(3-cholamidopropyl)dimethylammonio]-2-hydroxy-1-propanesulfonate] | – | 4.3 ± 2.5 | 300 µM | – | 125 ± 23.3 | – | Decrease of DOPC-stimulated ATPase activity [3]: approximately 50%; Relative ATPase activity in the presence of 300 μM DOPC ([3]; DOPC alone set to 100%): 48.7 ± 3.0%; Modulation of basal ATPase activity at 10 μM [2, 5]: –7.5 ± 8.6%; Max. Stimulation (%) [2, 6]: 145.4 ± 15.3%
5 | C[C@H](CC(=O)O)[C@H]1CC[C@H]2[C@@H]3[C@@H](O)C[C@@H]4C[C@H](O)CC[C@]4(C)[C@H]3CC[C@]12C [Nor-UDCA, 24-nor-ursodeoxycholic acid] | 1.8 mM and 1.8 ± 0.1 mM | 6.3 ± 1.3 | – | 373 ± 30 | 476 ± 18.5 | 195 ± 10.8 | ATPase activity in the presence of cholesterol:DOPC 1.5:1 ([3]; 1,000 μM BAM or Nor-UDCA added to cholesterol:DOPC (1.5:1, 300 μM DOPC), DOPC alone set to 100%): 380.7 ± 45.6%; Increase of ATPase activity compared with UDCA ([2]; maximal stimulation, side chain shortened by one carbon atom): approximately 85%
6 | C[C@H](CCC(=O)NCC(=O)O)[C@H]1CC[C@H]2[C@@H]3[C@H](O)C[C@@H]4C[C@H](O)CC[C@]4(C)[C@H]3CC[C@]12C [GCDCA] | 2.6 mM and 2.6 ± 0.1 mM | 3.9 ± 1.5 | approximately 150 μM | 127 ± 2.8 | 77.8 ± 7.5 | 223 ± 10 | –
7 | CC(C)CCC[C@@H](C)[C@H]1CC[C@H]2[C@@H]3CC=C4C[C@@H](O)CC[C@]4(C)[C@H]3CC[C@]12C [Cholesterol] | – | – | – | – | – | – | ATPase activity at cholesterol:DOPC ratio 1.5:1 ([3]; 300 μM DOPC, DOPC alone set to 100%): 190.4 ± 9.4%; Emax ([3]; 300 μM DOPC, DOPC alone set to 100%, cholesterol:DOPC ratios 1-2, read-out: Maximal stimulation of ATPase activity by cholesterol (vmax)): 204 ± 5.9%; ATPase activity at cholesterol:DOPC molar ratio 0.04 ([3]; 300 μM DOPC, DOPC alone set to 100%, considered no stimulation): 119%; EC50 ([3]; cholesterol mixed with 300 μM DOPC, molar ratios 0-3.3 (cholesterol to DOPC)): 210 µM; Slope ([3]; cholesterol mixed with 300 μM DOPC, allosteric sigmoidal fit): 7.8 ± 2.2; Max. Stimulation (%) ([3]; cholesterol mixed with 300 μM DOPC, stimulation in addition to DOPC stimulation): 103.5 ± 5.9%
8 | C[C@H](CCC(=O)O)[C@H]1CC[C@H]2[C@@H]3CC[C@@H]4C[C@H](O)CC[C@]4(C)[C@H]3CC[C@]12C [LCA, lithocholic acid] | Precipitate ^a | – | – | – | – | – | –
9 | C[C@H](CCC(=O)NCCC[N+](C)(C)CCCS(=O)(=O)[O-])[C@H]1CC[C@H]2[C@@H]3[C@H](O)C[C@@H]4C[C@H](O)CC[C@]4(C)[C@H]3C[C@H](O)[C@]12C [CHAPS, 3-[(3-cholamidopropyl)dimethylammonio]-1-propanesulfonate] | – | 3.7 ± 2.1 | 300 µM | – | 151 ± 20.8 | – | Decrease of DOPC-stimulated ATPase activity [3]: approximately 50%; Relative ATPase activity in the presence of 300 μM DOPC ([3]; DOPC alone set to 100%): 52.6 ± 6.5%; Modulation of basal ATPase activity at 10 μM [2, 5]: –7.1 ± 3.6%; Modulation of basal ATPase activity at 50 μM ([2]; 50 μM, basal = 0%, negative = inhibition, duplicates): –9.9 ± 5.0%; Max. Stimulation (%) [2, 6]: 142.6 ± 11.5%
10 | CCCCCCCC/C=C\CCCCCCCC(=O)OC[C@H](COP(=O)([O-])OCC[N+](C)(C)C)OC(=O)CCCCCCC/C=C\CCCCCCCC [DOPC, 1,2-dioleoyl-sn-glycero-3-phosphocholine] | – | – | – | – | – | – | ATPase activity of nonlabeled protein ([3]; presence of 300 μM DOPC, 5 μg protein): 488.6 ± 44.5 nmol/min/mg; Specific ATPase activity of ABCB4 (Bodipy-labeled activity subtracted) ([3]; presence of 300 μM DOPC, basal 132.1 ± 13.0): 275.8 ± 24.8 nmol/min/mg; ATPase activity of ABCB4-Bodipy (Bodipy-labeled protein) ([3]; with 300 μM DOPC, non-ABCB4-mediated background): 212.8 ± 19.7 nmol/min/mg
